Where two headings read alike, the source gives them in different places.
Assays:
[1] = biological target: SH2 and PTB domains; details: original PM interactions, ref Jones et al. 2006 / Kaushansky et al. Chem and Biol 2008, cited from earlier work
From the text: Supplement pone.0044471.s022.xlsx, sheet "Most recent PM interactions" | column: Kd || Supplement pone.0044471.s022.xlsx, sheet "All original PM interactions" | column: Kd

[2] = biological target: T1, GRB7 SH2 domain (Homo sapiens, UniProt Q14451); parameters: 6X His; thioredoxin; made in house; host or cells: E. coli BL21(DE3)pLysS; details: previous protein microarray data, Figure S5; cited from earlier work
[3] = biological target: T1, GRB7 SH2 domain; experiment: FP saturation binding assay; details: peptides queried on both FP and PM platforms

T1 sequence (Q14451 431-527 limits assumed): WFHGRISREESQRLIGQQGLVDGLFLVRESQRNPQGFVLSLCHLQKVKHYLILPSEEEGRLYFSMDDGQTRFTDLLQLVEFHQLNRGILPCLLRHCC

In the case of FDNLpYYWDQDPPEd [ErbB2 pY1221], the Kd ([1]; Protein ABL2) is given as 500 nM, the Kd ([1]; Protein BLK) is given as 1200 nM and the Kd ([1]; Protein BLNK) is given as 1560 nM. The Kd ([1]; Protein BMX) was 2000 nM, the Kd ([1]; Protein FGR) was 2000 nM and the Kd ([1]; Protein GRB10) was 120 nM. For the same substance, the Kd ([1]; Protein GRB14) was 1400 nM, the Kd ([1]; Protein ITK) was 1520 nM and the Kd ([1]; Protein LYN) was 930 nM. The Kd ([1]; Protein PIK3R1-C) was 2000 nM, the Kd ([1]; Protein PIK3R1-NC) was 1160 nM and the Kd ([1]; Protein PIK3R2-N) was 950 nM. For the same substance, the Kd ([1]; Protein PIK3R2-NC) was 2000 nM, the Kd ([1]; Protein PIK3R3-C) was 1910 nM and the Kd ([1]; Protein PIK3R3-N) was 2000 nM. The Kd ([1]; Protein PIK3R3-NC) was 2000 nM, the Kd ([1]; Protein PLCG1-C) was 2000 nM and the Kd ([1]; Protein PLCG1-N) was 1930 nM. For the same substance, the Kd ([1]; Protein PLCG1-NC) was 1960 nM, the Kd ([1]; Protein PLCG2-N) was 2000 nM and the Kd ([1]; Protein PLCG2-NC) was 2000 nM. The Kd ([1]; Protein PTPN11-N) was 2000 nM, the Kd ([1]; Protein RASA1-N) was 370 nM and the Kd ([1]; Protein RASA1-NC) was 900 nM. The Kd ([1]; Protein SH2D3A) was 1280 nM, the Kd ([1]; Protein SH2D3C) was 160 nM and the Kd ([1]; Protein SH3BP2) was 2000 nM. The Kd ([1]; Protein SHB) was 210 nM, the Kd ([1]; Protein SHC1-PTB) was 170 nM and the Kd ([1]; Protein SHC2-PTB) was 430 nM. The Kd ([1]; Protein SHD) was 2000 nM, the Kd ([1]; Protein SHF) was 340 nM and the Kd ([1]; Protein SLA2) was 1440 nM. For the same substance, the Kd ([1]; Protein SLA) was 1070 nM, the Kd ([1]; Protein SOCS1) was 1230 nM and the Kd ([1]; Protein SRC) was 35 nM. For the same substance, the Kd ([1]; Protein SUPT6H) was 1570 nM, the Kd ([1]; Protein SYK-C) was 2000 nM and the Kd ([1]; Protein SYK-N) was 260 nM. For the same substance, the Kd ([1]; Protein SYK-NC) was 410 nM, the Kd ([1]; Protein TEC) was 770 nM and the Kd ([1]; Protein TXK) was 1230 nM. For the same substance, the Kd ([1]; Protein VAV2) was 1750 nM, the Kd ([1]; Protein VAV3) was 1650 nM and the Kd ([1]; Protein YES1) was 45 nM. For the same substance, the Kd ([1]; Protein ZAP70-NC) was 1440 nM, the “interaction with GRB7 on the PM platform” value [2] was “only displayed interactions with GRB7 from the PM platform” and the “interaction with GRB7 on the FP platform” value [3] was “only displayed interactions with GRB7 from the PM platform”.

Source: article PMC3433420 (PLoS ONE, 2012)
